{
  "source": "patent US5962516A",
  "about": "“Immunosuppressive compounds and methods” (priority 1999, dated 1999)",
  "key": {"[1]": {"tested_on": "mixed lymphocyte reaction (spleen cells from female C57BL/6 mice, stimulated with Balb/C spleen cells)", "assay": "Mixed lymphocyte reaction (MLR) assay", "format": "cell-based, mouse", "conditions": "50% suppression of proliferation", "protocol": "Inhibition of cell proliferation by the subject compounds was assayed in the mixed lymphocyte reaction (MLR) (Bradley, 1980; Mishell, 1980). Spleen cells from female C57BL/6 mice, the \"responder\" cells, were prepared and co-cultured alone or in the presence of varying concentrations of the test compounds, with irradiated spleen cells prepared from female Balb/C mice, the \"stimulator\" cells. Prior irradiation of the stimulator cells rendered them unable to proliferate. A sample of the responder cells was also irradiated for use as a control. The non-irradiated responder cells proliferate in the presence of the allogenic stimulator cells. After a 78-hour incubation, tritiated thymidine was added to the mixed cell cultures, and incorporation of the labeled nucleotide into DNA was measured as an index of cell proliferation.\nIn this study, the responder cells (R) were spleen cells from female C57BL16 mice, and the stimulator cells (S) were spleen cells from female Balb/C mice 6 to 8 weeks of age (Jackson, Bar Harbor, Me.). The spleens were aseptically removed from the mice and placed into 10 ml of cold HBSS in a sterile petri dish. The spleen was cut in half and gently pressed between the frosted ends of 2 sterile microslides. The cell suspension was then filtered through sterile nylon mesh (Nytex, Tetco #HD-3-85) into a 15 ml conical polypropylene centrifuge tube and centrifuged at 200×g for 10 minutes in a Beckman GPR tabletop centrifuge (GH-3.7 Rotor). Following an additional wash in HBSS, the spleen cells were resuspended in RPMI 1640 medium (Gibco) containing 50 uM 2-mercaptoethanol, 2 mM glutamine, 100 U/ml penicillin, 100 μg/ml streptomycin and 10% heat-inactivated fetal bovine serum.\nThe stimulator cells (S) and part of the responder cells (R) were diluted at 10×10^6 cells/ml and irradiated at 20 cGy with a Cesium Irradiator (Department of Radiation Oncology, Stanford University, California) to inhibit proliferation. The irradiated cells were washed once to remove any toxic free radicals and their products resulting from irradiation. The responder cells (R), irradiated stimulator cells (Sx) and irradiated responder cell (Rx) were all diluted to 4×10^6 cells/ml.\nIn the assay, 4×10^5 cells of R were cocultured with 4×10^5 cells of Sx in 200 μl of medium in round bottom 96 well tissue culture plates. Fifty micro-liters of test samples at various concentrations were added to the cells. The wells receiving no test samples would get the maximum proliferation. Several controls were used in the assay. The irradiated responder cells (Rx) were also added to the responder cells with and without the test samples. Rx or Sx alone were checked to make sure no proliferation occurred after irradiation. The spontaneous proliferation of R was also measured.\nThe culture plates were incubated at 37° C. in a 5% CO2 incubator for four days. The cells were labelled with 1 μCi of (^3 H)-thymidine (Amersham, 49 Ci/mmol) in 20 μl of medium for the last 18 hours. Cells were then harvested and counted. The results were reported as counts per minute (cpm) per well. Percent of suppression and IC50 (concentration of sample producing 50% suppression of proliferation) were used to indicate the suppressive activity of the sample. Sample cpm was calculated as (R+Sx+sample)cpm-(R+Rx+sample)cpm; control cpm was calculated as (R+Sx)cpm-(R+Rx)cpm. Percent suppression of MLR activity was calculated as (1-sample cpm/control cpm)×100. IC50 was determined from percent suppression to indicate the suppressive activity of the sample."}, "[2]": {"tested_on": "IL-1β action on murine thymocytes", "assay": "Inhibition of IL-1 action (IL-1 assay): suppression of IL-1β + PHA stimulated murine thymocyte proliferation", "format": "cell-based, mouse (C3H/HeN)", "conditions": "50% suppression of proliferation, 72 h culture", "protocol": "The ability of the above compounds to suppress the cell-proliferative effect of IL-1β in vitro (O'Gara, 1990) was examined as described in Example 11. Mouse thymocytes in culture were stimulated with IL-1β in the presence of phytohemagglutinin (PHA) and increasing concentrations of triptolide (control) and triptolide derivatives. The cells were cultured for 72 hours, and during the last 18 hours, incubated with tritiated thymidine. DNA synthesis was assessed by measuring incorporation of radiolabeled thymidine. The results expressed in terms of IC50 (concentration effective to cause 50% suppression of proliferation) are shown in Table 1.\nC3H/HeN mouse thymocytes were prepared and the action of IL-1 together with PHA, which stimulate proliferation of thymocyte, was measured using standard techniques (O'Gara, 1990; Mishell, 1980). Three- to six-week old C3H/HeN male mice (Simonson Laboratory, Gilroy, Calif.) were sacrificed by CO2 inhalation. Thymi were removed, separated from adherent non-thymic tissue, homogenized in Hank's balanced salt solution (HBSS, Gibco) using a glass homogenizer, and centrifuged at 200×g for 10 minutes at 15° C. Following an additional wash in HBSS, the thymocytes were resuspended in RPMI 1640 medium containing 50 uM 2-mercaptoethanol, 2 mM glutamine, 1 mM sodium pyruvate, non-essential amino acids 100 U/ml penicillin, 100 μg/ml streptomycin, and 10% heat-inactivated fetal bovine serum.\nCells were cultured in round-bottom 96 well microtiter tissue culture plates, 6×10^5 cells per well, in a volume of 100 μl. Recombinant human IL-1β (R & D Systems #201-LB) together with Phytohemagglutinin P (PHA, Pharmacia) were added to the cells in volume of 25 μl per well to achieve a final concentration of 0.08 ng/ml and 10 μg/ml, respectively. Samples were dissolved in DMSO (10 mg/ml), then diluted in culture medium. Twenty five microliters of the test sample was added to each well to achieve the final compound concentrations for each experiment. Cells with PHA together with IL-1 served as controls. The total volume for each well was 150 μl.\nPlates were incubated at 37° C. in a 5% CO2 incubator for 72 hours. Fifty microliters of culture medium containing 0.5 μCi (^3 H)-thymidine (Amersham, 49 Ci/mmol) was added to each well prior to the last 18 hours of incubation. Cells were then harvested and counted. The results were reported as counts per minute (cpm) per 6×10^5 cells.\nThe following formula was used to calculate the percent of suppression of IL-1 activity, and IC50 (concentration of sample yielding 50% suppression of proliferation) was used to indicate the suppressive activity of the sample.\n% suppression of IL-1 activity=(1-sample cpm/(IL-1+PHA control"}},
  "note": "pIC50: −log10 of the molar value. Counter-ions that a name gives are not always drawn.",
  "data": [
    {"smiles": "CC(C)C12OC1C1OC13C1(C)CCC4=C(COC4=O)C1CC1OC13C2OC(=O)CCC(=O)O", "note": "(stereo not shown) [YM-276, Triptolide Succinate Lysine Salt]", "values": [
      {"measurement": "MLR Assay IC50", "setting": "[1]", "value": 0.063, "unit": "µg/mL"},
      {"measurement": "pIC50", "setting": "[1]; read-out: MLR Assay IC50", "value": 6.98},
      {"measurement": "IL-1 Assay IC50", "setting": "[2]", "value": 0.144, "unit": "µg/mL"},
      {"measurement": "pIC50", "setting": "[2]; read-out: IL-1 Assay IC50", "value": 6.62}
    ]}
  ]
}
